Experimental data published in PMC3898838, “Design, Synthesis, and Biological Evaluation of an Allosteric Inhibitor of HSET that Targets Cancer Cells with Supernumerary Centrosomes” (Chemistry & Biology, 2013).

Tests used:
NHDF cells [1] = assay: Immunofluorescence, mitotic spindle morphology; format: cell-based, human; details: 100 μM and 200 μM, 2.5 hr
Source text: Using IF, we next examined the mitotic phenotypes induced by CW069 in N1E-115 and NHDF cells, with a strong focus on centrosome numbers and mitotic spindle morphology. Antibodies against α-tubulin, CDK5RAP2, and DAPI were employed to visualize MTs, centrosomes, and DNA, respectively. We hypothesized that small-molecule inhibition of HSET would give rise to mitotic spindle defects similar to those reported after HSET knockdown by siRNA transfection ([Kwon et al., 2008]), and this was indeed the case. […] After treatment, the N1E-115 cells formed multipolar spindles due to a lack of centrosome clustering, consistent with HSET inhibition in cells with supernumerary centrosomes (Figure 4C).
[…] Prewarmed 4% paraformaldehyde in PBS was then added to each well to fix the cells before washing with PBS. Permeabilization and blocking was performed by incubating the slides with 1% BSA, 0.3% Triton X-100, 5% goat serum in PBS (PBS/B/0.3%T+5%GS) for 1 hr while shaking them at room temperature (RT). The slides were incubated with primary antibody solutions (mouse monoclonal anti-α-Tubulin [catalog number T9026; Sigma-Aldrich] and rabbit anti-CDK5RAP2 [catalog number A300-554A; Bethyl Laboratories]) at 4°C for 16 hr. […]

[2] = system: primary adult human bone marrow cells; assay: Colony-formation (CFU-GM) assay; format: cell-based; details: 85 μM, 100 μM, 150 μM
N1E-115 cells = assay: SRB growth-inhibition assay; format: cell-based; details: Mus musculus, N1E-115, 72 hr, 0.3 μM to 400 μM
Source text: (§1) We next assessed whether CW069 could selectively target proliferation in cancer cells. We used a combination of cell-growth-inhibition assays based on the Sulforhodamine-B (SRB) technique ([Vichai and Kirtikara, 2006]) and IncuCyte live-cell imaging. […] This further highlights that HSET inhibition, unlike that of KSP or CENP-E, provides a unique opportunity to selectively damage malignant cells without harming normal cells.
(§2) NHDF cells were obtained from PromoCell, and the N1E-115 and HeLa cells were obtained from ATCC/LGC Standards. The BT549, MCF-7 and MDA-MB-231 cells were kind gifts from the Caldas laboratory (CRUK Cambridge Institute) and were originally obtained from ATCC/LGC. All human cells were verified by STR genotyping and all tested negative for mycoplasma. Cells were cultured in Dulbecco’s modified Eagle’s medium (DMEM) supplemented with 10% fetal calf serum (FCS) at 37°C and 5% CO2. All compounds used in the Sulforhodamine B colorimetric (SRB) assay ([Vichai and Kirtikara, 2006]) were dissolved in DMSO and diluted in culture medium to a final concentration of 0.2% DMSO. For the SRB assay and live-cell imaging (using the IncuCyte Kinetic Live Cell Imaging System; Select Science), cells were seeded in 96-well plates at a density of 2,500 cells per well. […] Fluorescence was quantified using an Infinite 200 PRO plate-reader (Tecan) at a wavelength of 545 nm. […]

NHDF cells [3] = assay: SRB growth-inhibition assay; format: cell-based; details: Homo sapiens, 72 hr, 0.3 μM to 400 μM
Source text: as §1, §2

MCF-7 cells = assay: Time-lapse microscopy, mitotic fate; format: cell-based, human; details: MCF-7, 200 μM
Protocol: (§3) Cells were synchronized in G2-M by incubation at 37°C and 5% CO2 for 24 hr with 9 μM of the CDK1 inhibitor RO-3306 (Merck). Cells were released by removal of the RO-3306 and four washings of 10 min each, at 37°C, with prewarmed culture media + 10% FBS. N1E-115 cells were transfected with siRNA (Supplemental Experimental Procedures) and imaged from 6 hr after transfection. Some RO-3306-synchronized cells were released with 200 μM CW069, 100 μM monastrol, or 0.2% DMSO, and imaging started immediately or 1 hr after treatment. Imaging was carried out for 24 hr, or for 4 hr in the case of the CW069/monastrol cotreatment. Imaging was conducted every 5 min in a humidified chamber with 37°C and 5% CO2, using a Nikon Eclipse TE2000-E microscope, and analyzed with NIS-Elements software (Nikon, Tokyo, Japan). The morphology of cells in mitosis and the mitotic fate (bipolar division, multipolar division, or cell death) were analyzed.

NHDF cells [4] = assay: Time-lapse microscopy, mitotic fate; format: cell-based, human; details: 200 μM
Protocol: as §3

[5] = target: T1, full-length, N-terminal, 6His-tagged human HSET (Homo sapiens, UniProt Q9BW19); assay: Differential scanning fluorimetry (DSF); format: binding; details: CW069 0.03125-1 mM in 4% DMSO
T1 sequence (Q9BW19 307-663 limits assumed): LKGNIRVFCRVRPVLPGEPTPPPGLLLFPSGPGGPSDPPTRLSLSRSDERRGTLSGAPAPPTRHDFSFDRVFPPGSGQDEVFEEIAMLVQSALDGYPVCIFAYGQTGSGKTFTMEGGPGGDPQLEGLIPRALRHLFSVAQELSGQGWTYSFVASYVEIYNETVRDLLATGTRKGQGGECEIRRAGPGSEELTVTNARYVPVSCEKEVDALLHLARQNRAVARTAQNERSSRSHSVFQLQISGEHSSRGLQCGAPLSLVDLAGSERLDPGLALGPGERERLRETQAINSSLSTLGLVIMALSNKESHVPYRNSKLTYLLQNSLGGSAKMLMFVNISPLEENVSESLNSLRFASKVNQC
Protocol: DSF is an inexpensive and rapid method for identifying ligands of purified proteins, and relies on the difference in protein unfolding temperature in the presence and absence of a small molecule ([Niesen et al., 2007]). The unfolding temperature is measured by the increase in fluorescence of a dye with particular affinity for the hydrophobic regions of proteins, which become exposed upon unfolding ([Niesen et al., 2007]). The difference in the transition midpoint, ΔTm, in the presence of a ligand is related to its binding affinity; however, this is not a direct measure of the binding coefficient and therefore was not used to calculate the affinity of CW069 for HSET ([Holdgate and Ward, 2005]).

clonogenic capacity [2]: did not reduce the clonogenic capacity | maximum HSET ΔTm [5]: −8.0 °C
Structure (SMILES): O=C(O)c1cc(I)ccc1NC(=O)[C@H](Cc1ccccc1)NCc1ccccc1 [CW069]
mitotic spindle morphology (NHDF cells [1]): unchanged compared with control | IC50 (N1E-115 cells): 86 ± 10 µM | IC50 (NHDF cells [3]): 181 ± 7 µM | bipolar division (MCF-7 cells): remained unaffected | multipolar anaphase formation (NHDF cells [4]): No similar increase in multipolar anaphase formation
